From ChEMBL document CHEMBL3797178, “Synthesis, antimycobacterial and antibacterial activity of 1-(6-amino-3,5-difluoropyridin-2-yl)fluoroquinolone derivatives containing an oxime functional moiety” (2016)
In brackets after ≈: the same amount, converted by molar mass.

Assays:
Type in all cases: functional
[1] = test system: Staphylococcus epidermidis; assay: Antibacterial activity against methicillin-sensitive Staphylococcus epidermidis 14-2 after 18 to 24 hrs by CLSI M100-S11 method
[2] = test system: Staphylococcus epidermidis; assay: Antibacterial activity against methicillin-resistant Staphylococcus epidermidis 14-39 after 18 to 24 hrs by CLSI M100-S11 method
[3] = test system: Staphylococcus epidermidis; assay: Antibacterial activity against methicillin-sensitive Staphylococcus epidermidis 14-6 after 18 to 24 hrs by CLSI M100-S11 method
Pseudomonas aeruginosa [4] = assay: Antibacterial activity against Pseudomonas aeruginosa 14-9 after 18 to 24 hrs by CLSI M100-S11 method
Streptococcus pneumoniae = assay: Antibacterial activity against Streptococcus pneumoniae ATCC 19615 after 18 to 24 hrs by CLSI M100-S11 method
Staphylococcus aureus [5] = assay: Antibacterial activity against methicillin-sensitive Staphylococcus aureus 14-2 after 18 to 24 hrs by CLSI M100-S11 method
Enterococcus faecium [6] = assay: Antibacterial activity against Enterococcus faecium 14-1 after 18 to 24 hrs by CLSI M100-S11 method
Escherichia coli [7] = assay: Antibacterial activity against Escherichia coli 14-2 after 18 to 24 hrs by CLSI M100-S11 method
Staphylococcus aureus [8] = assay: Antibacterial activity against methicillin-sensitive Staphylococcus aureus 14-4 after 18 to 24 hrs by CLSI M100-S11 method
Escherichia coli [9] = assay: Antibacterial activity against Escherichia coli ATCC 25922 after 18 to 24 hrs by CLSI M100-S11 method
Pseudomonas aeruginosa [10] = assay: Antibacterial activity against Pseudomonas aeruginosa 14-19 after 18 to 24 hrs by CLSI M100-S11 method
Escherichia coli [11] = assay: Antibacterial activity against extended-spectrum beta-lactamase-producing Escherichia coli 14-2 after 18 to 24 hrs by CLSI M100-S11 method
Enterococcus faecalis [12] = assay: Antibacterial activity against Enterococcus faecalis 14-1 after 18 to 24 hrs by CLSI M100-S11 method
[13] = test system: Staphylococcus epidermidis; assay: Antibacterial activity against methicillin-resistant Staphylococcus epidermidis 14-22 after 18 to 24 hrs by CLSI M100-S11 method
Staphylococcus aureus [14] = assay: Antibacterial activity against methicillin-resistant Staphylococcus aureus 14-5 after 18 to 24 hrs by CLSI M100-S11 method
Klebsiella pneumoniae [15] = assay: Antibacterial activity against extended-spectrum beta-lactamase-producing Klebsiella pneumoniae 14-17 after 18 to 24 hrs by CLSI M100-S11 method
Pseudomonas aeruginosa [16] = assay: Antibacterial activity against Pseudomonas aeruginosa 14-14 after 18 to 24 hrs by CLSI M100-S11 method
Klebsiella pneumoniae [17] = assay: Antibacterial activity against Klebsiella pneumoniae 14-1 after 18 to 24 hrs by CLSI M100-S11 method
Klebsiella pneumoniae [18] = assay: Antibacterial activity against extended-spectrum beta-lactamase-producing Klebsiella pneumoniae 14-19 after 18 to 24 hrs by CLSI M100-S11 method
Klebsiella pneumoniae [19] = assay: Antibacterial activity against Klebsiella pneumoniae 14-4 after 18 to 24 hrs by CLSI M100-S11 method
Klebsiella pneumoniae [20] = assay: Antibacterial activity against extended-spectrum beta-lactamase-producing Klebsiella pneumoniae 14-18 after 18 to 24 hrs by CLSI M100-S11 method
[21] = test system: Staphylococcus epidermidis; assay: Antibacterial activity against methicillin-resistant Staphylococcus epidermidis 14-37 after 18 to 24 hrs by CLSI M100-S11 method
Escherichia coli [22] = assay: Antibacterial activity against Escherichia coli 14-1 after 18 to 24 hrs by CLSI M100-S11 method
Pseudomonas aeruginosa [23] = assay: Antibacterial activity against Pseudomonas aeruginosa 14-16 after 18 to 24 hrs by CLSI M100-S11 method
[24] = test system: Mycobacterium tuberculosis; assay: Antimycobacterial activity against Mycobacterium tuberculosis H37Rv ATCC 27294 after 3 days by microplate Alamar Blue assay; settings: H37Rv ATCC 27294, 72 h
Pseudomonas aeruginosa [25] = assay: Antibacterial activity against Pseudomonas aeruginosa ATCC 27853 after 18 to 24 hrs by CLSI M100-S11 method
Klebsiella pneumoniae [26] = assay: Antibacterial activity against Klebsiella pneumoniae 14-2 after 18 to 24 hrs by CLSI M100-S11 method
Staphylococcus aureus [27] = assay: Antibacterial activity against methicillin-resistant Staphylococcus aureus 14-4 after 18 to 24 hrs by CLSI M100-S11 method
[28] = test system: Staphylococcus epidermidis; assay: Antibacterial activity against methicillin-sensitive Staphylococcus epidermidis 14-4 after 18 to 24 hrs by CLSI M100-S11 method
Enterococcus faecalis [29] = assay: Antibacterial activity against Enterococcus faecalis 14-2 after 18 to 24 hrs by CLSI M100-S11 method
Klebsiella pneumoniae [30] = assay: Antibacterial activity against Klebsiella pneumoniae 14-3 after 18 to 24 hrs by CLSI M100-S11 method
Enterococcus faecium [31] = assay: Antibacterial activity against Enterococcus faecium 14-2 after 18 to 24 hrs by CLSI M100-S11 method
Staphylococcus aureus [32] = assay: Antibacterial activity against methicillin-sensitive Staphylococcus aureus 14-3 after 18 to 24 hrs by CLSI M100-S11 method
Staphylococcus aureus [33] = assay: Antibacterial activity against Staphylococcus aureus CMCC 26003 after 18 to 24 hrs by CLSI M100-S11 method
Escherichia coli [34] = assay: Antibacterial activity against extended-spectrum beta-lactamase-producing Escherichia coli 14-1 after 18 to 24 hrs by CLSI M100-S11 method
Enterococcus faecalis [35] = assay: Antibacterial activity against Enterococcus faecalis 14-3 after 18 to 24 hrs by CLSI M100-S11 method
Pseudomonas aeruginosa [36] = assay: Antibacterial activity against Pseudomonas aeruginosa 14-15 after 18 to 24 hrs by CLSI M100-S11 method

CCO/N=C1\CN(c2nc3c(cc2F)c(=O)c(C(=O)O)cn3-c2nc(N)c(F)cc2F)CC1CN (centres undefined)
MIC [1]: 64 µg/mL (≈ 130 µM)
MIC [2]: 32 µg/mL (≈ 65.1 µM)
MIC [3]: 32 µg/mL (≈ 65.1 µM)
MIC (Pseudomonas aeruginosa [4]): 16 µg/mL (≈ 32.6 µM)
MIC (Streptococcus pneumoniae): 16 µg/mL (≈ 32.6 µM)
MIC (Staphylococcus aureus [5]): 0.25 µg/mL (≈ 0.509 µM)
MIC (Enterococcus faecium [6]): 128 µg/mL (≈ 260 µM)
MIC (Escherichia coli [7]): 64 µg/mL (≈ 130 µM)
MIC (Staphylococcus aureus [8]): 0.5 µg/mL (≈ 1.02 µM)
MIC (Escherichia coli [9]): 0.5 µg/mL (≈ 1.02 µM)
MIC (Pseudomonas aeruginosa [10]): 32 µg/mL (≈ 65.1 µM)
MIC (Escherichia coli [11]): 128 µg/mL (≈ 260 µM)
MIC (Enterococcus faecalis [12]): 16 µg/mL (≈ 32.6 µM)
MIC [13]: 32 µg/mL (≈ 65.1 µM)
MIC (Staphylococcus aureus [14]): 64 µg/mL (≈ 130 µM)
MIC (Klebsiella pneumoniae [15]): 64 µg/mL (≈ 130 µM)
MIC (Pseudomonas aeruginosa [16]): 16 µg/mL (≈ 32.6 µM)
MIC (Klebsiella pneumoniae [17]): 64 µg/mL (≈ 130 µM)
MIC (Klebsiella pneumoniae [18]): 128 µg/mL (≈ 260 µM)
MIC (Klebsiella pneumoniae [19]): 128 µg/mL (≈ 260 µM)
MIC (Klebsiella pneumoniae [20]): 32 µg/mL (≈ 65.1 µM)
MIC [21]: 64 µg/mL (≈ 130 µM)
MIC (Escherichia coli [22]): 64 µg/mL (≈ 130 µM)
MIC (Pseudomonas aeruginosa [23]): 16 µg/mL (≈ 32.6 µM)
MIC [24]: 6.56 µg/mL (≈ 13.3 µM)
MIC (Pseudomonas aeruginosa [25]): 4 µg/mL (≈ 8.14 µM)
MIC (Klebsiella pneumoniae [26]): 128 µg/mL (≈ 260 µM)
MIC (Staphylococcus aureus [27]): 64 µg/mL (≈ 130 µM)
MIC [28]: 32 µg/mL (≈ 65.1 µM)
MIC (Enterococcus faecalis [29]): 16 µg/mL (≈ 32.6 µM)
MIC (Klebsiella pneumoniae [30]): 128 µg/mL (≈ 260 µM)
MIC (Enterococcus faecium [31]): 8 µg/mL (≈ 16.3 µM)
MIC (Staphylococcus aureus [32]): 0.5 µg/mL (≈ 1.02 µM)
MIC (Staphylococcus aureus [33]): 0.06 µg/mL (≈ 0.122 µM)
MIC (Escherichia coli [34]): 8 µg/mL (≈ 16.3 µM)
MIC (Enterococcus faecalis [35]): 32 µg/mL (≈ 65.1 µM)
MIC (Pseudomonas aeruginosa [36]): 16 µg/mL (≈ 32.6 µM)

CO/N=C1\CN(c2c(F)cc3c(=O)c(C(=O)O)cn(-c4nc(N)c(F)cc4F)c3c2Cl)CC1CN (centres undefined)
MIC [1]: 64 µg/mL (≈ 125 µM)
MIC [2]: 32 µg/mL (≈ 62.6 µM)
MIC [3]: 64 µg/mL (≈ 125 µM)
MIC (Pseudomonas aeruginosa [4]): 8 µg/mL (≈ 15.7 µM)
MIC (Streptococcus pneumoniae): 16 µg/mL (≈ 31.3 µM)
MIC (Staphylococcus aureus [5]): 0.06 µg/mL (≈ 0.117 µM)
MIC (Enterococcus faecium [6]): > 128 µg/mL
MIC (Escherichia coli [7]): 64 µg/mL (≈ 125 µM)
MIC (Staphylococcus aureus [8]): 0.25 µg/mL (≈ 0.489 µM)
MIC (Escherichia coli [9]): 0.125 µg/mL (≈ 0.245 µM)
MIC (Pseudomonas aeruginosa [10]): 8 µg/mL (≈ 15.7 µM)
MIC (Escherichia coli [11]): 64 µg/mL (≈ 125 µM)
MIC (Enterococcus faecalis [12]): 16 µg/mL (≈ 31.3 µM)
MIC [13]: 64 µg/mL (≈ 125 µM)
MIC (Staphylococcus aureus [14]): 128 µg/mL (≈ 251 µM)
MIC (Klebsiella pneumoniae [15]): 32 µg/mL (≈ 62.6 µM)
MIC (Pseudomonas aeruginosa [16]): 8 µg/mL (≈ 15.7 µM)
MIC (Klebsiella pneumoniae [17]): 64 µg/mL (≈ 125 µM)
MIC (Klebsiella pneumoniae [18]): 128 µg/mL (≈ 251 µM)
MIC (Klebsiella pneumoniae [19]): 128 µg/mL (≈ 251 µM)
MIC (Klebsiella pneumoniae [20]): 16 µg/mL (≈ 31.3 µM)
MIC [21]: 64 µg/mL (≈ 125 µM)
MIC (Escherichia coli [22]): 64 µg/mL (≈ 125 µM)
MIC (Pseudomonas aeruginosa [23]): 8 µg/mL (≈ 15.7 µM)
MIC [24]: 30.5 µg/mL (≈ 59.7 µM)
MIC (Pseudomonas aeruginosa [25]): 4 µg/mL (≈ 7.83 µM)
MIC (Klebsiella pneumoniae [26]): > 128 µg/mL
MIC (Staphylococcus aureus [27]): 128 µg/mL (≈ 251 µM)
MIC [28]: 32 µg/mL (≈ 62.6 µM)
MIC (Enterococcus faecalis [29]): 64 µg/mL (≈ 125 µM)
MIC (Klebsiella pneumoniae [30]): 128 µg/mL (≈ 251 µM)
MIC (Enterococcus faecium [31]): 8 µg/mL (≈ 15.7 µM)
MIC (Staphylococcus aureus [32]): 0.125 µg/mL (≈ 0.245 µM)
MIC (Staphylococcus aureus [33]): 0.03 µg/mL (≈ 0.0587 µM)
MIC (Escherichia coli [34]): 2 µg/mL (≈ 3.91 µM)
MIC (Enterococcus faecalis [35]): 32 µg/mL (≈ 62.6 µM)
MIC (Pseudomonas aeruginosa [36]): 8 µg/mL (≈ 15.7 µM)
